Experimental data published in patent publication US9890140B2, “Maleate salts of a quinazoline derivative useful as an antiangiogenic agent” (AstraZeneca AB, priority 2003, dated 2018).

Tests used:
[1] = test system: VEGF-stimulated proliferation of human umbilical vein endothelial cells (HUVEC); assay: In vitro HUVEC proliferation assay, VEGF-stimulated; format: cell-based; conditions: read-out: IC50 for inhibition of VEGF-stimulated endothelial cell proliferation
Protocol: (b) In Vitro HUVEC Proliferation Assay
(§1) HUVEC cells were isolated in MCDB 131 (Gibco BRL)+7.5% v/v foetal calf serum (FCS) and were plated out (at passage 2 to 8), in MCDB 131+2% v/v FCS+3 μg/ml heparin+1 μg/ml hydrocortisone, at a concentration of 1000 cells/well in 96 well plates. After a minimum of 4 hours they were dosed with VEGF (3 ng/ml) and compound. The cultures were then incubated for 4 days at 37° C. with 7.5% CO2. On day 4 the cultures were pulsed with 1 μCi/well of tritiated-thymidine (Amersham product TRA 61) and incubated for 4 hours. The cells were harvested using a 96-well plate harvester (Tomtek) and then assayed for incorporation of tritium with a Beta plate counter. Incorporation of radioactivity into cells, expressed as cpm, was used to measure inhibition of growth factor-stimulated cell proliferation by compounds. This methodology was also used to assess compound effects versus basal HUVEC growth (i.e. endothelial cell proliferation in MCDB 131+2% v/v FCS […]+3 μg/ml heparin+1 μg/ml hydrocortisone without the addition of exogenous VEGF).

[2] = test system: basal HUVEC growth (without exogenous VEGF); assay: In vitro HUVEC proliferation assay, basal growth; format: cell-based; conditions: Homo sapiens, no exogenous VEGF, read-out: IC50 for inhibition of basal endothelial cell proliferation
Protocol: as §1

Calu-6 tumour xenograft = assay: In vivo solid tumour disease model; design: species or system female athymic Swiss nu/nu mice; conditions: once-daily oral, 28 days
Protocol: (c) In Vivo Solid Tumour Disease Model This test measures the capacity of compounds to inhibit solid tumour growth. CaLu-6 tumour xenografts were established in the flank of female athymic Swiss nu/nu mice, by subcutaneous injection of 1×10^6 Calu-6 cells/mouse in 100 μl of a 50% (v/v) solution of Matrigel in serum free culture medium. […] Tumours were measured using vernier calipers and volumes were calculated as: (l×w)×√(l×w)×(π/6), where l is the longest diameter and w the diameter perpendicular to the longest. Test compounds were administered orally once daily for a minimum of 21 days, and control animals received compound diluent. Tumours were measured twice weekly. The level of growth inhibition was calculated by comparison of the mean tumour volume of the control group versus the treatment group using a Student T test and/or a Mann-Whitney Rank Sum Test. The inhibitory effect of compound treatment was considered significant when p<0.05.

[3] = Solid state stability of the free base on dehydration / micronisation (XRPD); format: physicochemical
Protocol: This is shown by a broadening of the peaks and formation of an amorphous 'hump'-see FIG. 4. […] The X-ray powder diffraction spectra were determined by mounting a sample of the crystalline salt on Siemens single silicon crystal (SSC) wafer mounts and spreading out the sample into a thin layer with the aid of a microscope slide. The sample was spun at 30 revolutions per minute (to improve counting statistics) and irradiated with X-rays generated by a copper long-fine focus tube operated at 40 kV and 40 mA with a wavelength of 1.5406 angstroms. The collimated X-ray source was passed through an automatic variable divergence slit set at […] and the reflected radiation directed through a 2 mm antiscatter slit and a 0.2 mm detector slit. The sample was exposed for 1 second per 0.02 degree 2-theta increment (continuous scan mode) over the range 2 degrees to 40 degrees 2-theta in theta-theta mode. The running time was 31 minutes and 41 seconds. The instrument was equipped with a scintillation counter as detector. Control and data capture was by means of a Dell Optiplex 686 NT 4.0 Workstation operating with Diffract+ software. Persons skilled in the art of X-ray powder diffraction will realise that the relative intensity of peaks can be affected by, for example, grains above 30 microns in size and non-unitary aspect ratios which may affect analysis of samples. […]

[4] = Dynamic vapour sorption, moisture content at 80% RH; format: physicochemical; conditions: 80% relative humidity
Protocol: Dynamic Vapour Sorption Analytical Instrument: Surface Measurements Systems Dynamic Vapour Sorption Analyser. About 5 mg of material contained in a quartz holder at 25° C. was subjected to humidified nitrogen at the following relative humidities (RH): 0, 20, 40, 60, 80, 95, 80, 60, 40, 20, 0% RH in duplicate.

[5] = Evidence of hydrate formation (vapour sorption or TGA); format: physicochemical; conditions: vapour sorption (hysteresis, water absorption) or TGA
Protocol: About 5 mg of material contained in a quartz holder at 25° C. was subjected to humidified nitrogen at the following relative humidities (RH): 0, 20, 40, 60, 80, 95, 80, 60, 40, 20, 0% RH in duplicate. Typically between 3 and 12 mg of material contained in a 70 μl alox (aluminium oxide) crucible was heated over the temperature range 25° C. to 325° C. at a constant heating rate of 10° C. per minute. A purge gas using helium was used—flow rate 50 ml per minute.

[6] = Evidence for polymorphism from DSC thermograms; format: physicochemical
Protocol: Analytical Instrument: Mettler DSC820e. Typically less than 5 mg of material contained in a 40 μl aluminium pan fitted with a pierced lid was heated over the temperature range 25° C. to 325° C. at a constant heating rate of 10° C. per minute. A purge gas using nitrogen was used—flow rate 100 ml per minute.

[7] = Crystallinity of AZD2171 salts; format: physicochemical

Row | Solid form after dehydration ([3]; heating to 100° C., FIG. 3) | Solid form after particle size reduction ([3]; micronisation, FIG. 4) | Moisture Content at 80% RH [4] [%] | Evidence of Hydrate Formation (Yes/No) [5] | No of Polymorphs [6] | Crystalline (Yes/No) [7] | Compound | IC50 [1] [nM] | IC50 [2] [nM] | Inhibition of growth of Calu-6 tumour xenograft (Calu-6 tumour xenograft; 1.5 mg/kg/day, P<0.01) [%] | Inhibition of growth of Calu-6 tumour xenograft (Calu-6 tumour xenograft; 3 mg/kg/day, P<0.0001) [%] | Inhibition of growth of Calu-6 tumour xenograft (Calu-6 tumour xenograft; 6 mg/kg/day, P<0.0001) [%]
1 | becomes amorphous | amorphous material does indeed form | – | – | – | – | COc1cc2c(Oc3ccc4[nH]c(C)cc4c3F)ncnc2cc1OCCCN1CCCC1 [AZD2171, 4-((4-fluoro-2-methyl-1H-indol-5-yl)oxy)-6-methoxy-7-(3-(pyrrolidin-1-yl)propoxy)quinazoline] | 0.4 ± 0.2 | > 500 | 49 | 69 | 91
2 | – | – | 3.5 | No | ≧3 | Yes | Fumarate | – | – | – | – | –
3 | – | – | – | Yes | ≧3 | Yes | Malonate | – | – | – | – | –
